Laboratory results as given in PubChem BioAssay AID2060487 (Molecular Pharmacology Branch, DTP, NCI, 2025).

Test system: 997537-175-T-J1-PDC complex spheroid viability
Test: Anticancer human tumor 997537-175-T-J1-PDC patient-derived colon adenocarcinoma cell line growth inhibition [GQUAD]
Conditions: for IC50: curve of first compound; for viability, T/C: stronger effect = lower value
In short: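 Tumor cells were grown as complex spheroids with HUVEC endothelial cells and mesenchymal stem cells as stroma. G-quadruplex stabilizers were combined with targeted agents over half-log dilutions from near the clinical Cmax, or from 10 microM.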

[1] = second compound 0.0316 µM, first compound 0.0316 µM
[2] = second compound 0.0316 µM, first compound 0.1 µM
[3] = second compound 0.0316 µM, first compound 0.316 µM
[4] = second compound 0.0316 µM, first compound 1 µM
[5] = second compound 0.0316 µM, first compound 3.16 µM
[6] = second compound 0.0316 µM, first compound 10 µM
[7] = second compound 0.1 µM, first compound 0.0316 µM
[8] = second compound 0.1 µM, first compound 0.1 µM
[9] = second compound 0.1 µM, first compound 0.316 µM
[10] = second compound 0.1 µM, first compound 1 µM
[11] = second compound 0.1 µM, first compound 3.16 µM
[12] = second compound 0.1 µM, first compound 10 µM
[13] = second compound 0.316 µM, first compound 0.0316 µM
[14] = second compound 0.316 µM, first compound 0.1 µM
[15] = second compound 0.316 µM, first compound 0.316 µM
[16] = second compound 0.316 µM, first compound 1 µM
[17] = second compound 0.316 µM, first compound 3.16 µM
[18] = second compound 0.316 µM, first compound 10 µM
[19] = second compound 1 µM, first compound 0.0316 µM
[20] = second compound 1 µM, first compound 0.1 µM
[21] = second compound 1 µM, first compound 0.316 µM
[22] = second compound 1 µM, first compound 1 µM
[23] = second compound 1 µM, first compound 3.16 µM
[24] = second compound 1 µM, first compound 10 µM
[25] = second compound 3.16 µM, first compound 0.0316 µM
[26] = second compound 3.16 µM, first compound 0.1 µM
[27] = second compound 3.16 µM, first compound 0.316 µM
[28] = second compound 3.16 µM, first compound 1 µM
[29] = second compound 3.16 µM, first compound 3.16 µM
[30] = second compound 3.16 µM, first compound 10 µM
[31] = second compound 10 µM, first compound 0.0316 µM
[32] = second compound 10 µM, first compound 0.1 µM
[33] = second compound 10 µM, first compound 0.316 µM
[34] = second compound 10 µM, first compound 1 µM
[35] = second compound 10 µM, first compound 3.16 µM
[36] = second compound 10 µM, first compound 10 µM
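Also: spheroids exposed to the agents for 7 days.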
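For viability, T/C in this document: 100% = DMSO vehicle control viability.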

COc1ncnc(C2CC2)c1-c1ncc2cnn(Cc3ccc(-c4nc(C(F)(F)F)cn4C(C)C)cc3)c2n1 + CN(C)c1ccc(Nc2c3ccc(NC(=O)CCN4CCCC4)cc3nc3cc(NC(=O)CCN4CCCC4)ccc23)cc1
IC50 (second compound 0.0316 µM): > 10 µM | IC50 (second compound 0.1 µM): > 10 µM | IC50 (second compound 0.316 µM): > 10 µM | IC50 (second compound 1 µM): > 10 µM | IC50 (second compound 3.16 µM): > 10 µM | IC50 (second compound 10 µM): > 10 µM | viability, T/C [1]: 99% | viability, T/C [2]: 88.7% | viability, T/C [3]: 79.4% | viability, T/C [4]: 77.8% | viability, T/C [5]: 77.8% | viability, T/C [6]: 97.8% | viability, T/C [7]: 91.4% | viability, T/C [8]: 80.4% | viability, T/C [9]: 82.2% | viability, T/C [10]: 62.4% | viability, T/C [11]: 81.4% | viability, T/C [12]: 76.7% | viability, T/C [13]: 73% | viability, T/C [14]: 85.5% | viability, T/C [15]: 86.5% | viability, T/C [16]: 81.1% | viability, T/C [17]: 87.5% | viability, T/C [18]: 82.1% | viability, T/C [19]: 69.2% | viability, T/C [20]: 88.2% | viability, T/C [21]: 81.5% | viability, T/C [22]: 79% | viability, T/C [23]: 85.7% | viability, T/C [24]: 82.1% | viability, T/C [25]: 74.5% | viability, T/C [26]: 87.6% | viability, T/C [27]: 86.6% | viability, T/C [28]: 84.3% | viability, T/C [29]: 86.4% | viability, T/C [30]: 91.8% | viability, T/C [31]: 75.5% | viability, T/C [32]: 81.7% | viability, T/C [33]: 86.8% | viability, T/C [34]: 77.2% | viability, T/C [35]: 89% | viability, T/C [36]: 84.7%

CC(C)(O)C1CCC(Nc2ccc3ncc(-c4cccc(C(F)(F)F)c4)n3n2)CC1 (stereo not drawn) + Cc1[nH]c2ccc(F)cc2c1-c1nc2c3cccnc3c3ncccc3c2[nH]1
IC50 (second compound 0.0316 µM): > 10 µM | IC50 (second compound 0.1 µM): > 10 µM | IC50 (second compound 0.316 µM): > 10 µM | IC50 (second compound 1 µM): > 10 µM | IC50 (second compound 3.16 µM): > 10 µM | IC50 (second compound 10 µM): > 10 µM | viability, T/C [1]: 114% | viability, T/C [2]: 107% | viability, T/C [3]: 103% | viability, T/C [4]: 108% | viability, T/C [5]: 107% | viability, T/C [6]: 114% | viability, T/C [7]: 120% | viability, T/C [8]: 103% | viability, T/C [9]: 97.5% | viability, T/C [10]: 103% | viability, T/C [11]: 99.3% | viability, T/C [12]: 105% | viability, T/C [13]: 101% | viability, T/C [14]: 105% | viability, T/C [15]: 108% | viability, T/C [16]: 101% | viability, T/C [17]: 104% | viability, T/C [18]: 99.4% | viability, T/C [19]: 115% | viability, T/C [20]: 99% | viability, T/C [21]: 101% | viability, T/C [22]: 101% | viability, T/C [23]: 97.7% | viability, T/C [24]: 90.5% | viability, T/C [25]: 94.9% | viability, T/C [26]: 97.2% | viability, T/C [27]: 93.5% | viability, T/C [28]: 90.7% | viability, T/C [29]: 104% | viability, T/C [30]: 96.9% | viability, T/C [31]: 98.1% | viability, T/C [32]: 80.3% | viability, T/C [33]: 88.9% | viability, T/C [34]: 97.4% | viability, T/C [35]: 78.3% | viability, T/C [36]: 79.6%

COc1cc(C2c3cc4c(cc3C(OC3OC5COC(C)OC5C(O)C3O)C3COC(=O)C23)OCO4)cc(OC)c1O (stereo not drawn) + Cc1[nH]c2ccc(F)cc2c1-c1nc2c3cccnc3c3ncccc3c2[nH]1
IC50 (second compound 0.0316 µM): > 10 µM | IC50 (second compound 0.1 µM): > 10 µM | IC50 (second compound 0.316 µM): > 10 µM | IC50 (second compound 1 µM): > 10 µM | IC50 (second compound 3.16 µM): > 10 µM | IC50 (second compound 10 µM): > 10 µM | viability, T/C [1]: 105% | viability, T/C [2]: 90% | viability, T/C [3]: 102% | viability, T/C [4]: 64.1% | viability, T/C [5]: 109% | viability, T/C [6]: 53.6% | viability, T/C [7]: 99% | viability, T/C [8]: 75.9% | viability, T/C [9]: 89% | viability, T/C [10]: 88.3% | viability, T/C [11]: 90.8% | viability, T/C [12]: 75.3% | viability, T/C [13]: 96.4% | viability, T/C [14]: 64.1% | viability, T/C [15]: 91.1% | viability, T/C [16]: 84.5% | viability, T/C [17]: 91% | viability, T/C [18]: 76.8% | viability, T/C [19]: 89.8% | viability, T/C [20]: 77.2% | viability, T/C [21]: 88.5% | viability, T/C [22]: 84.8% | viability, T/C [23]: 67.7% | viability, T/C [24]: 53.1% | viability, T/C [25]: 88.5% | viability, T/C [26]: 71% | viability, T/C [27]: 85.8% | viability, T/C [28]: 75.7% | viability, T/C [29]: 98.6% | viability, T/C [30]: 72.4% | viability, T/C [31]: 84.8% | viability, T/C [32]: 92.7% | viability, T/C [33]: 78.6% | viability, T/C [34]: 81% | viability, T/C [35]: 86% | viability, T/C [36]: 65.2%

CCc1c2c(nc3ccc(O)cc13)-c1cc3c(c(=O)n1C2)COC(=O)[C@]3(O)CC + Cc1cnc(CNC(=O)c2c(=O)c3ccc(N4CCCN(C)CC4)nc3n3c2sc2ccccc23)cn1
IC50 (second compound 0.0316 µM): 0.00807 µM | IC50 (second compound 0.1 µM): 0.0118 µM | IC50 (second compound 0.316 µM): 0.0114 µM | IC50 (second compound 1 µM): 0.00752 µM | IC50 (second compound 3.16 µM): 0.0133 µM | IC50 (second compound 10 µM): 0.0127 µM | viability, T/C (second compound 0.0316 µM, first compound 0.000999 µM): 101% | viability, T/C (second compound 0.0316 µM, first compound 0.00316 µM): 70.3% | viability, T/C (second compound 0.0316 µM, first compound 0.00999 µM): 50.2% | viability, T/C [1]: 17.3% | viability, T/C (second compound 0.0316 µM, first compound 0.0999 µM): 6.2% | viability, T/C [3]: 2.76% | viability, T/C (second compound 0.1 µM, first compound 0.000999 µM): 95.2% | viability, T/C (second compound 0.1 µM, first compound 0.00316 µM): 85.8% | viability, T/C (second compound 0.1 µM, first compound 0.00999 µM): 57% | viability, T/C [7]: 13.7% | viability, T/C (second compound 0.1 µM, first compound 0.0999 µM): 8.95% | viability, T/C [9]: 3.1% | viability, T/C (second compound 0.316 µM, first compound 0.000999 µM): 101% | viability, T/C (second compound 0.316 µM, first compound 0.00316 µM): 73.4% | viability, T/C (second compound 0.316 µM, first compound 0.00999 µM): 63.1% | viability, T/C [13]: 15.6% | viability, T/C (second compound 0.316 µM, first compound 0.0999 µM): 10% | viability, T/C [15]: 3.09% | viability, T/C (second compound 1 µM, first compound 0.000999 µM): 109% | viability, T/C (second compound 1 µM, first compound 0.00316 µM): 69.2% | viability, T/C (second compound 1 µM, first compound 0.00999 µM): 42.1% | viability, T/C [19]: 28.1% | viability, T/C (second compound 1 µM, first compound 0.0999 µM): 9.78% | viability, T/C [21]: 2.05% | viability, T/C (second compound 3.16 µM, first compound 0.000999 µM): 91.8% | viability, T/C (second compound 3.16 µM, first compound 0.00316 µM): 80.2% | viability, T/C (second compound 3.16 µM, first compound 0.00999 µM): 54.9% | viability, T/C [25]: 32.5% | viability, T/C (second compound 3.16 µM, first compound 0.0999 µM): 8.3% | viability, T/C [27]: 2.04% | viability, T/C (second compound 10 µM, first compound 0.000999 µM): 81.3% | viability, T/C (second compound 10 µM, first compound 0.00316 µM): 71.1% | viability, T/C (second compound 10 µM, first compound 0.00999 µM): 59.7% | viability, T/C [31]: 19.4% | viability, T/C (second compound 10 µM, first compound 0.0999 µM): 7.8% | viability, T/C [33]: 1.03%
